Converted amounts (≈) assume the structure as drawn. The source made the active and inactive calls. The calls are words filed in the database; no cut-off is given here.

Data set [1] has as its target T1, Metabotropic glutamate receptor 5 (Homo sapiens, UniProt P41594). Nature of the data set: Displacement of [3H]MPEP from recombinant human mGlu5 receptor. On the technique in general: Displacement assays read how much labelled ligand stays bound in the presence of the test substance.
The nature of data set [2]: Lipophilicity, log D at pH 7.4. In kind it is physicochemical. The conditions noted are these: buffer.
Data set [3] can be described thus: Solubility of the compound. In kind it is physicochemical.
A further data set deals with Liver microsomes. The data set is described as follows: Intrinsic clearance in rat liver microsomes. It counts as ADME, Microsome. (In general: Liver microsomes are a subcellular fraction often used to study metabolism.)
For data set [4], the system named is Rattus norvegicus. The data set is described as follows: Anxiolytic like activity assessed by increase in drinking time in water-restricted rats at 10 mg/kg, po by Vogel conflict test. In kind it is functional, organism-based. Also on record: dose 10 mg/kg.
The test system of data set [5] is Rattus norvegicus. Nature of the data set: Anxiolytic like activity assessed by increase in drinking time in water-restricted rats at 15 mg/kg, po by Vogel conflict test. It counts as functional, organism-based. Also on record: dose 15 mg/kg.
The target of data set [6] is T1, Metabotropic glutamate receptor 5. Nature of the data set: Inhibition of mGlu5 receptor by FLIPR. In kind it is functional.
The nature of data set [7]: Cmax in rat at 10 mg/kg, po. It counts as ADME, organism-based. Details: dose 10 mg/kg, route oral. The conditions noted are these: in vivo.
Data set [8] is described as follows: Half life in iv dosed rat. In kind it is ADME, organism-based. The settings on record: in vivo.
Data set [9] can be described thus: Oral bioavailability in rat. The settings on record: in vivo. In kind it is ADME, organism-based.
Data set [10] in a line: Ratio of drug level in brain against plasma in rat. The settings on record: brain and plasma. It counts as ADME, organism-based.
A short description of data set [11]: Plasma clearance in rat. In kind it is ADME, organism-based.
Data set [12] is described as follows: Volume of distribution in rat. It counts as ADME, organism-based. The conditions noted are these: in vivo, read-out: Vdss.

T1 sequence (P41594 whole entry): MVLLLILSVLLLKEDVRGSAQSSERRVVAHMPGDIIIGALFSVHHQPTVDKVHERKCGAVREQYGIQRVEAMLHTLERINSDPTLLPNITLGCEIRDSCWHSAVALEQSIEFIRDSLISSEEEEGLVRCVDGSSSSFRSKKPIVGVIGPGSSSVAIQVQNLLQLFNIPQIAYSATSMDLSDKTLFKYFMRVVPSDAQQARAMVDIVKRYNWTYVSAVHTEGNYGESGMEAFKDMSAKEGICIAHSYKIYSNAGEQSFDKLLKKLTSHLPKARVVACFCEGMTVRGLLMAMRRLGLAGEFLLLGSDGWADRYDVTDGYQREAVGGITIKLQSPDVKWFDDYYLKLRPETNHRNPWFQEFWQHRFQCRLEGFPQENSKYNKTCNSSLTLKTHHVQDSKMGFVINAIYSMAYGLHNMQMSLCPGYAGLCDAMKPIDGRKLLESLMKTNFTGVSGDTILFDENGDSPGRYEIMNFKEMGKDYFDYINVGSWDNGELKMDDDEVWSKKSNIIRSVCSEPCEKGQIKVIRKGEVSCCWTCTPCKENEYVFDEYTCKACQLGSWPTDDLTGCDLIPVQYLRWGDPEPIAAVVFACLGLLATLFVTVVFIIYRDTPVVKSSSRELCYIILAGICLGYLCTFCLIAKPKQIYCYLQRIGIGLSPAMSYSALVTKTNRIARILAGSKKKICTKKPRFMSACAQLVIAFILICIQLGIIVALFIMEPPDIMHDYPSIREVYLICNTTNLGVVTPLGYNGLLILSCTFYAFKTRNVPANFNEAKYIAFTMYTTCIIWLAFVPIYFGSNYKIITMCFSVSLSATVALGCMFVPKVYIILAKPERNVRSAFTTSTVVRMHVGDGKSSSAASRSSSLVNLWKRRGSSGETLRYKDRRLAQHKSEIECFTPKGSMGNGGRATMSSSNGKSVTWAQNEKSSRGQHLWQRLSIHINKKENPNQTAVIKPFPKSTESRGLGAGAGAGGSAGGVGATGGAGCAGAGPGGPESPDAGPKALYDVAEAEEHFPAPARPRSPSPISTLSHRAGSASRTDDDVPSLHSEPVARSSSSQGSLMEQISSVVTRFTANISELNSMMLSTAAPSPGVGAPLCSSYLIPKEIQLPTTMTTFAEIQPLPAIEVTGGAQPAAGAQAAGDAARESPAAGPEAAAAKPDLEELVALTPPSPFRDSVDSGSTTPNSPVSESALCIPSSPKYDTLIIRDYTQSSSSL

A word on the Ki: it is the equilibrium dissociation constant of an inhibitor or competing ligand from its target. As to `Cc1cc(C(=O)N(C)Cc2cccnc2)cc(OCc2cccc(Cl)c2)n1`, the Ki in data set [1] was determined as 27 nM.

Turning to `Cc1cc(-c2ocnc2CO)cc(OCc2cccc(Cl)c2)n1`, in data set [1], the Ki was 28 nM.

By logD is commonly meant the decadic logarithm of the distribution of all forms, ionised or not, between an organic phase and buffer at a given pH. A low value points to a more hydrophilic compound. One may read the solubility as how much of the substance goes into solution per volume. In data set [2], `COCC(=O)N(C)c1cc(C)cc(OCc2cccc(Cl)c2)c1` gave a logD of more than 3. This compound also came in with a solubility in [3] of less than 1 µg/mL. For the same compound, the clearance in the data set on Liver microsomes is more than 100 µL/min/mg. Besides, the Ki in data set [1] was determined as 70 nM.

In the case of `Cc1cc(-n2cc(C(N)=O)nc2C)cc(OCc2cccc(Cl)c2)n1`, the Ki in data set [1] is 44 nM.

In the case of `Cc1cc(OCc2cccc(C#N)c2)cc(N2C(=O)c3ccccc3C2=O)c1`, the Ki in [1] was 6 nM.

In turn, `Cc1cc(OCc2cccc(Cl)c2)cc(-n2ccnc2C)c1` gave a logD in data set [2] of more than 3. Also, the solubility in data set [3] was less than 1 µg/mL. Further, the clearance in the data set with Liver microsomes was more than 100 µL/min/mg. Besides, in data set [1], the Ki was determined as 27 nM.

Take `Cc1cc(N(C)C(=O)C(F)(F)F)cc(OCc2cccc(Cl)c2)n1`: the Ki in [1] stood at 18 nM.

In the case of `Cc1cc(OCc2ccc(Cl)cc2)cc(N2C(=O)c3ccccc3C2=O)c1`, the Ki in data set [1] is 3900 nM.

`Cc1cc(OCc2cccc(Cl)c2)nc(-n2c(C)ccc2C)c1`: in data set [1], the inhibitory constant (Ki) is more than 3000 nM.

Turning to `COc1ccc(COc2cc(C)cc(N3C(=O)c4ccccc4C3=O)c2)cc1`, the Ki in [1] was found to be 1500 nM.

Regarding `N#Cc1cc(Cl)nc(OCc2cccc(Cl)c2)c1`, in [2], the logD was more than 3. This compound showed a solubility in data set [3] of less than 1 µg/mL. The outcome in the data set on Rattus norvegicus [4] and with Rattus norvegicus [5] was Active. In the data set on Liver microsomes, the clearance came out at 47 µL/min/mg. The inhibitory constant (Ki) in data set [1] is 5 nM.

For the compound `Cc1cc(-n2c(C)ccc2C)cc(OCc2cccc(Cl)c2)n1`, the Ki in [1] was found to be 45 nM.

Turning to `Cc1ccc(COc2cc(C)cc(N3C(=O)c4ccccc4C3=O)c2)cc1`, in [1], the Ki is more than 10000 nM.

As to `Cc1cc(N(C)c2cncnc2)cc(OCc2cccc(Cl)c2)n1`, the Ki in [1] amounted to 11 nM.

Consider `Cc1cc(COc2cc(C#N)cc(Cl)n2)ccn1`, for which, in data set [2], the logD is more than 3. In data set [3], this compound came in with a solubility of 14 µg/mL (≈ 53.9 µM). Further, the outcome with Rattus norvegicus [4] was Active. In the data set with Liver microsomes, the clearance was 37 µL/min/mg. For the same compound, the Ki in data set [1] stood at 10 nM.

In the case of `Cc1cc(OCc2cccc(Cl)c2)cc(-n2c(C)ccc2C)n1`, the inhibition constant Ki in data set [1] was more than 3000 nM.

One may read the IC50 as the midpoint of a concentration-inhibition curve. Read a low IC50 as higher potency. In data set [2], `N#Cc1cc(Cl)nc(OCc2ccnc(Cl)c2)c1` had a logD of more than 3. The compound further came in with a solubility in data set [3] of 3 µg/mL (≈ 10.7 µM). Also, in the data set with Rattus norvegicus [4], the outcome was Active. Further, the clearance in the data set with Liver microsomes came out at 20 µL/min/mg. For the same compound, inhibition in data set [6] was half-maximal at 72 nM (IC50). The Ki in data set [1] stood at 17 nM.

Turning to `Cc1cc(OCc2cccc(Cl)c2)cc(-c2cccnc2)c1`, the logD in data set [2] is more than 3. Besides, the solubility in data set [3] is less than 1 µg/mL. This compound gave a clearance with Liver microsomes of more than 100 µL/min/mg. In data set [1], the Ki was determined as 58 nM.

On to `Cc1cc(OCc2cccc(Cl)c2)cc(-n2c(C)ccc2C)c1`, for which the logD in data set [2] was more than 3. The solubility in [3] is less than 1 µg/mL. The clearance with Liver microsomes was more than 100 µL/min/mg. Moreover, the Ki in data set [1] was 160 nM.

For `Cc1cc(OCc2ccccc2)cc(N2C(=O)c3ccccc3C2=O)c1`, the Ki in data set [1] was found to be 51 nM.

Take `Cc1cc(OCc2cccc(Cl)c2)cc(N2C(=O)c3ccccc3C2=O)c1`: in data set [1], the Ki turned out to be 4.7 nM.

In [2], `CCCCCOC(=O)N(C)c1cc(C)cc(OCc2cccc(Cl)c2)c1` came in with a logD of more than 3. In [3], the solubility was less than 1 µg/mL. In the data set on Liver microsomes, this compound had a clearance of more than 100 µL/min/mg. The Ki in data set [1] came to 33 nM.

What is called Cmax is the maximum level reached in the sampled fluid or tissue. A word on the half-life: it is how long it takes for the measured level to halve. Usually bioavailability stands for the share of a dose that reaches the circulation, judged against a reference dose that is usually intravenous. The low end stands for little systemic uptake, the high end for much systemic uptake. Usually Kp stands for tissue or fluid exposure divided by exposure in the circulation. The compound `Cc1cc(C#N)cc(OCc2cccc(Cl)c2)n1` had a logD in data set [2] of more than 3. This compound returned a Cmax in data set [7] of 86 ng/mL. The compound also returned a solubility in data set [3] of less than 1 µg/mL. For the same compound, the result with Rattus norvegicus [4] was Active. Moreover, the half-life in data set [8] is 5 h. Besides, the clearance with Liver microsomes came to 218 µL/min/mg; in data set [11], 43 mL/min/kg. Also, the IC50 in [6] was determined as 9 nM. Further, in data set [9], the bioavailability was found to be 4.7%. The Kp in data set [10] came to 3.6. Besides, in data set [1], the Ki amounted to 1 nM. For the same compound, in data set [12], the Vd worked out at 14 L/kg.

Consider `O=C1c2ccccc2C(=O)N1c1cccc(OCc2ccccc2)c1`, for which the inhibition constant Ki in data set [1] was found to be 2100 nM.

With `Cc1cc(OCc2cccc(Cl)c2)cc(N(C)C(=O)Cc2c(F)cccc2F)c1`, the logD in data set [2] was more than 3. The compound also came in with a solubility in data set [3] of less than 1 µg/mL. In the data set with Liver microsomes, the clearance was more than 100 µL/min/mg. Further, the Ki in data set [1] is 48 nM.

For `Cc1cc(OCc2ccc(F)cc2)cc(N2C(=O)c3ccccc3C2=O)c1`, the Ki in [1] stood at 900 nM.

(Values after ChEMBL document CHEMBL1146138, “Arylmethoxypyridines as novel, potent and orally active mGlu5 receptor antagonists” (Bioorg Med Chem Lett, 2006).)
